Legend:
[1] = biological target: Sodium/hydrogen exchanger 1 (Homo sapiens, UniProt P19634); experiment: Inhibition of human NHE1 expressed in PS120 cells assessed as imposed acidosis; type: cell-based
[2] = system: Heart; experiment: Cardioprotective activity in Langendorff perfused rat heart assessed as left ventricular end diastolic pressure at 10 uM treated 10 mins before global ischemia challenge for 30 mins followed by 30 mins of reperfusion; type: functional
[3] = system: Heart; experiment: Cardioprotective activity in Langendorff perfused rat heart assessed as recovery of rate pressure product at 10 uM treated 10 mins before global ischemia challenge for 30 mins followed by 30 mins of reperfusion; type: functional
[4] = system: Rattus norvegicus; experiment: Cardioprotective activity in Langendorff perfused rat myocardial infarction model assessed as ratio of myocardial infarction size to area at risk at 0.1 mg/kg, iv administered 5 mins before onset ischemia challenge followed by 90 mins reperfusion; type: functional, Myocardium

Sodium/hydrogen exchanger 1, sequence (P19634 whole entry, the tested form may be a part): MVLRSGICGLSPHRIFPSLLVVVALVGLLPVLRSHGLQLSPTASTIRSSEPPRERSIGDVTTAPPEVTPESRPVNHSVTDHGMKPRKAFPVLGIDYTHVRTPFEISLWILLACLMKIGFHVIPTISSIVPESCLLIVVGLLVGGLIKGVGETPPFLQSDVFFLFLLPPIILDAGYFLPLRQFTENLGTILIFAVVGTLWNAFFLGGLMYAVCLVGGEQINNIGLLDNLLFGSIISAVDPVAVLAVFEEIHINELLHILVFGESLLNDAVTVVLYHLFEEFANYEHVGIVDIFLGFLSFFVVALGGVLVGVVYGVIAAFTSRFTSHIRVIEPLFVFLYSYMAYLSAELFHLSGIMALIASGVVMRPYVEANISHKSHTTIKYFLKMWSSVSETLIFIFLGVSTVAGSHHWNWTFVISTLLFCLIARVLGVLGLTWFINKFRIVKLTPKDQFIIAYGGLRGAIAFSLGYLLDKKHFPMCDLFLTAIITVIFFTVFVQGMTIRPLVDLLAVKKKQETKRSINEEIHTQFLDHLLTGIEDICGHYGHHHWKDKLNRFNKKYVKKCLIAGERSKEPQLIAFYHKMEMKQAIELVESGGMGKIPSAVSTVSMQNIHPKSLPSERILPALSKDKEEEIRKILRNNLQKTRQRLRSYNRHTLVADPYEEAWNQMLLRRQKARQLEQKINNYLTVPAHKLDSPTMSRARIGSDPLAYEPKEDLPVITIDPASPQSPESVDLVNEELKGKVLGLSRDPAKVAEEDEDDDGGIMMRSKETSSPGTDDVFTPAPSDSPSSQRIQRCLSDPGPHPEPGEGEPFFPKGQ

| IC50 [1] | Structure (SMILES) | Activity [2] | Activity [3] | Activity [4] |
| --- | --- | --- | --- | --- |
| 4.5 µM | Cc1[nH]c(-c2cccc(F)c2)nc1C(=O)N=C(N)N | – | – | – |
| > 30 µM | Cc1[nH]c(-c2ccc(F)cc2)nc1C(=O)N=C(N)N | – | – | – |
| 0.072 µM | CS(=O)(=O)O.Cc1oc(-c2cc(Cl)ccc2Cl)nc1C(=O)N=C(N)N | 27% | 19% | 39% |
| > 30 µM | Cc1cccc(-c2nc(C(=O)N=C(N)N)c(C)[nH]2)c1C | – | – | – |
| 1.1 µM | CS(=O)(=O)O.CS(=O)(=O)O.Cc1ccc(C)c(-c2nc(C(=O)N=C(N)N)c(C)[nH]2)c1 | 32% | 33% | 45% |
| 5 µM | Cc1cc(C)cc(-c2nc(C(=O)N=C(N)N)c(C)[nH]2)c1 | – | – | – |
| 2.4 µM | Cc1ccccc1-c1nc(C(=O)N=C(N)N)c(C)[nH]1 | – | – | – |
| 12 µM | Cc1cccc(-c2nc(C(=O)N=C(N)N)c(C)[nH]2)c1 | – | – | – |
| 12 µM | Cc1[nH]c(-c2ccccc2)nc1C(=O)N=C(N)N | – | – | – |
| 4.5 µM | Cc1[nH]c(-c2cccc(Cl)c2)nc1C(=O)N=C(N)N | – | – | – |
| > 30 µM | Cc1[nH]c(-c2ccc(Cl)cc2)nc1C(=O)N=C(N)N | – | – | – |
| 6.6 µM | Cc1[nH]c(-c2cccc(F)c2F)nc1C(=O)N=C(N)N | – | – | – |
| 1.4 µM | CS(=O)(=O)O.CS(=O)(=O)O.Cc1[nH]c(-c2ccccc2Cl)nc1C(=O)N=C(N)N | 35% | 69% | 50% |
| > 30 µM | COc1cccc(-c2nc(C(=O)N=C(N)N)c(C)[nH]2)c1OC | – | – | – |
| 7.2 µM | Cc1[nH]c(-c2ccccc2F)nc1C(=O)N=C(N)N | – | – | – |
| 4.1 µM | COc1cccc(-c2nc(C(=O)N=C(N)N)c(C)[nH]2)c1 | – | – | – |
| 0.5 µM | Cc1[nH]c(-c2cccc(Cl)c2Cl)nc1C(=O)N=C(N)N | – | – | – |
| 0.1 µM | CS(=O)(=O)O.CS(=O)(=O)O.Cc1[nH]c(-c2cc(Cl)ccc2Cl)nc1C(=O)N=C(N)N | 25% | 59% | 40% |
| 0.8 µM | COc1ccc(F)cc1-c1nc(C(=O)N=C(N)N)c(C)[nH]1.CS(=O)(=O)O.CS(=O)(=O)O | 29% | 27% | – |

| IC50 [1] | Structure (SMILES) | Activity [2] | Activity [3] | Activity [4] |
| --- | --- | --- | --- | --- |
| 8.2 µM | Cc1oc(-c2ccccc2)nc1C(=O)N=C(N)N | – | – | – |
| 6.6 µM | Cc1cccc(-c2nc(C(=O)N=C(N)N)c(C)o2)c1 | – | – | – |
| 0.89 µM | CS(=O)(=O)O.Cc1oc(-c2cc(Cl)cc(Cl)c2)nc1C(=O)N=C(N)N | 25% | 26% | – |
| 2.8 µM | Cc1oc(-c2cc(F)ccc2F)nc1C(=O)N=C(N)N | – | – | – |
| 0.24 µM | COc1ccc(Cl)cc1-c1nc(C(=O)N=C(N)N)c(C)[nH]1.CS(=O)(=O)O.CS(=O)(=O)O | 28% | 60% | 34% |
| 3.3 µM | Cc1oc(-c2cc(F)cc(F)c2)nc1C(=O)N=C(N)N | – | – | – |
| 1.7 µM | Cc1oc(-c2cccc(Cl)c2)nc1C(=O)N=C(N)N | – | – | – |
| > 30 µM | Cc1oc(-c2ccc(Cl)cc2)nc1C(=O)N=C(N)N | – | – | – |
| 7.1 µM | Cc1cc(C)cc(-c2nc(C(=O)N=C(N)N)c(C)o2)c1 | – | – | – |
| 3.1 µM | COc1ccccc1-c1nc(C(=O)N=C(N)N)c(C)[nH]1 | – | – | – |
| 4.2 µM | Cc1oc(-c2cccc(F)c2)nc1C(=O)N=C(N)N | – | – | – |
| 3 µM | Cc1[nH]c(-c2cc(F)ccc2F)nc1C(=O)N=C(N)N | – | – | – |
| 0.52 µM | CS(=O)(=O)O.Cc1[nH]c(-c2cc(Cl)cc(Cl)c2)nc1C(=O)N=C(N)N | 28% | 23% | – |
| 2.1 µM | COc1ccc(-c2nc(C(=O)N=C(N)N)c(C)[nH]2)cc1OC | – | – | – |
| > 30 µM | COc1ccc(-c2nc(C(=O)N=C(N)N)c(C)[nH]2)cc1 | – | – | – |
| 2.7 µM | Cc1[nH]c(-c2cc(F)cc(F)c2)nc1C(=O)N=C(N)N | – | – | – |
| > 30 µM | Cc1ccc(-c2nc(C(=O)N=C(N)N)c(C)[nH]2)cc1 | – | – | – |
| 0.22 µM | CS(=O)(=O)O.Cc1ccc(C)c(-c2nc(C(=O)N=C(N)N)c(C)o2)c1 | 9% | 59% | 47% |
| – | CC(C)c1ccc(C(=O)N=C(N)N)cc1S(C)(=O)=O.CS(=O)(=O)O [CARIPORIDE MESYLATE] | 22% | 48% | 41% |
